Assay results published in the supplement of paper PMC11061612.

Columns and labels:
[1] = compound: CC1(C)CCC(CN2CCN(c3ccc(C(=O)NS(=O)(=O)c4ccc(NCC5CCOCC5)c([N+](=O)[O-])c4)c(Oc4cnc5[nH]ccc5c4)c3)CC2)=C(c2ccc(Cl)cc2)C1 [Venetoclax]; conditions: max 1 µM
Procedure, shortened: (§1)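 Cancer cell lines were seeded into 1536-well plates in 7.5 μl medium (DMEM/F12 or RPMI, 10% FBS), held 24 hours at 37°C and 5% CO2, and dosed for 72 hours with final DMSO typically 0.2%. Luminescence from CellTiter-Glo 2.0, scaled between blank-well and DMSO-well means, served as viability. The single-agent IC50 was obtained from dose-response fits with a non-linear mixed effects model, each fit being a two-parameter logistic curve.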

[2] = compound: C[C@@H]1COCCN1C2=NC(=NC(=C2)C3(CC3)[S@](=N)(=O)C)C4=C5C=CNC5=NC=C4 [AZD6738]; conditions: max 10 µM
Procedure, shortened: as §1

[3] = compound: C=CCn1c(=O)c2cnc(Nc3ccc(N4CCN(C)CC4)cc3)nc2n1-c1cccc(C(C)(C)O)n1 [AZD1775]
Procedure, shortened: as §1

[4] = compound: CC1=CN2[C@@H](C1)C=NC3=CC(=C(C=C3C2=O)OC)OCCCCCOC4=C(C=C5C(=C4)N=C[C@@H]6CC(=CN6C5=O)C)OC [SG3199]; conditions: max 0.001 µM
Procedure, shortened: as §1

[5] = compound: CN(C)CCCOc1ccc(-c2ccc3ncc4c(c3c2)n(C2CCOCC2)c(=O)n4C)cn1 [AZD0156]
Procedure, shortened: as §1

[6] = compound: CCc1c2c(nc3ccc(O)cc13)-c1cc3c(c(=O)n1C2)COC(=O)[C@]3(O)CC [SN-38]; conditions: max 0.3 µM
Procedure, shortened: as §1

[7] = compound: O=C(c1cc(Cc2n[nH]c(=O)c3ccccc23)ccc1F)N1CCN(C(=O)C2CC2)CC1 [Olaparib]; conditions: max 10 µM
Procedure, shortened: as §1

[8] = compound: CC(=O)Nc1cccc(-n2c(=O)n(C3CC3)c(=O)c3c(Nc4ccc(I)cc4F)n(C)c(=O)c(C)c32)c1 [Trametinib]; conditions: max 1 µM
Procedure, shortened: as §1

[9] = compound: CN(CC[C@H](CSC1=CC=CC=C1)NC2=C(C=C(C=C2)S(=O)(=O)NC(=O)C3=CC=C(C=C3)N4CCC(CC4)[C@H](C5=CC=CC=C5C6=CC=C(C=C6)Cl)O)S(=O)(=O)C(F)(F)F)CCO [AZD4320]; conditions: max 1 µM
Procedure, shortened: as §1

[10] = compound: C[C@@H](Nc1cc(F)cc(F)c1)c1cc(C(=O)N(C)C)cc2c(=O)cc(N3CCOCC3)oc12 [AZD8186]; conditions: max 3 µM
Procedure, shortened: as §1

[11] = compound: C1CN(CCC1(C(=O)N[C@@H](CCO)C2=CC=C(C=C2)Cl)N)C3=NC=NC4=C3C=CN4 [Capivasertib]
Procedure, shortened: as §1

[12] = compound: Cc1cc2ncnn2cc1Nc1ncc2c(n1)n(C1CCOCC1)c(=O)n2C [AZD7648]; conditions: max 10 µM
Procedure, shortened: as §1

[13] = compound: Cc1nc(-c2cn3c(n2)-c2ccc(-c4cnn(C(C)(C)C(N)=O)c4)cc2OCC3)n(C(C)C)n1 [Taselisib]; conditions: max 10 µM
Procedure, shortened: as §1

[14] = compound: COc1cc(Nc2ncc3c(n2)-c2ccc(Cl)cc2C(c2c(F)cccc2OC)=NC3)ccc1C(=O)O [Alisertib]; conditions: max 10 µM
Procedure, shortened: as §1

[15] = compound: COc1cccc2c1C(=O)c1c(O)c3c(c(O)c1C2=O)C[C@@](O)(C(=O)CO)C[C@@H]3O[C@H]1C[C@H](N)[C@H](O)[C@H](C)O1 [Doxorubicin]; conditions: max 1 µM
Procedure, shortened: as §1

[16] = compound: COc1cccc(OCCCN)c1-c1cc(Nc2cnc(C#N)cn2)n[nH]1 [Prexasertib]; conditions: max 1 µM
Procedure, shortened: as §1

[17] = compound: Cn1cnc2c(F)c(Nc3ccc(Br)cc3Cl)c(C(=O)NOCCO)cc21 [Selumetinib]
Procedure, shortened: as §1

[18] = compound: CCN(CCO)CCCOc1ccc2c(Nc3cc(CC(=O)Nc4cccc(F)c4)[nH]n3)ncnc2c1 [AZD2811]; conditions: max 1 µM
Procedure, shortened: as §1

[19] = compound: Cc1c2c(nn1C)CSCc1cc(n(C)n1)CSc1cc(c3ccccc3c1)OCCCc1c(C(=O)O)n(C)c3c-2c(Cl)ccc13 [AZD5991]; conditions: max 1 µM
Procedure, shortened: as §1

[20] = compound: CC(=O)c1c(C)c2cnc(Nc3ccc(N4CCNCC4)cn3)nc2n(C2CCCC2)c1=O [Palbociclib]; conditions: max 10 µM
Procedure, shortened: as §1

[21] = compound: C[C@@H](Oc1cc(-c2cnn(C3CCNCC3)c2)cnc1N)c1c(Cl)ccc(F)c1Cl [Crizotinib]; conditions: max 10 µM
Procedure, shortened: as §1

[22] = compound: COc1nnc2ccc(N3CCC(c4ccc(OCCN5CCN(C)C(=O)[C@H]5C)cc4)CC3)nn12 [AZD5153]; conditions: max 1 µM
Procedure, shortened: as §1

[23] = compound: CS(=O)(=O)CCNCc1ccc(-c2ccc3ncnc(Nc4ccc(OCc5cccc(F)c5)c(Cl)c4)c3c2)o1 [Lapatinib]; conditions: max 10 µM
Procedure, shortened: as §1

[24] = compound: C[C@@H](c1ccc2nccn2c1)n1nnc2ncc(-c3cnn(C)c3)nc21 [Savolitinib]; conditions: max 1 µM
Procedure, shortened: as §1

[25] = compound: CC(C)n1c(=O)n(C)c2cnc3cc(F)c(-c4ccc(OCCCN5CCCCC5)nc4)cc3c21 [AZD1390]; conditions: max 0.3 µM
Procedure, shortened: as §1

[26] = compound: CC1=C(C(=CC=C1)Cl)NC(=O)C2=CN=C(S2)NC3=CC(=NC(=N3)C)N4CCN(CC4)CCO [Dasatinib]; conditions: max 2 µM
Procedure, shortened: as §1

[27] = compound: COc1cc2ncnc(Nc3ccc(F)c(Cl)c3)c2cc1OCCCN1CCOCC1 [Gefitinib]; conditions: max 10 µM
Procedure, shortened: as §1

[28] = compound: NC1(c2ccc(-c3nc4ccn5c(=O)[nH]nc5c4cc3-c3ccccc3)cc2)CCC1 [MK-2206]; conditions: max 10 µM
Procedure, shortened: as §1

Cell Line	IC50, cell viability 72 h [1]	IC50, cell viability 72 h [2]	IC50, cell viability 72 h ([3]; max 1 µM)	IC50, cell viability 72 h [4]	IC50, cell viability 72 h ([5]; max 1 µM)	IC50, cell viability 72 h [6]	IC50, cell viability 72 h [7]	IC50, cell viability 72 h [8]	IC50, cell viability 72 h [9]	IC50, cell viability 72 h [10]	IC50, cell viability 72 h ([11]; max 3 µM)	IC50, cell viability 72 h [12]	IC50, cell viability 72 h [13]	IC50, cell viability 72 h [14]	IC50, cell viability 72 h [15]	IC50, cell viability 72 h [16]	IC50, cell viability 72 h ([17]; max 3 µM)	IC50, cell viability 72 h [18]	IC50, cell viability 72 h [19]	IC50, cell viability 72 h ([3]; max 3 µM)	IC50, cell viability 72 h [20]	IC50, cell viability 72 h ([5]; max 3 µM)	IC50, cell viability 72 h [21]	IC50, cell viability 72 h [22]	IC50, cell viability 72 h [23]	IC50, cell viability 72 h [24]	IC50, cell viability 72 h [25]	IC50, cell viability 72 h ([11]; max 10 µM)	IC50, cell viability 72 h [26]	IC50, cell viability 72 h ([17]; max 10 µM)	IC50, cell viability 72 h [27]	IC50, cell viability 72 h [28]
CTB-1 (B-Cell Non-Hodgkin's Lymphoma)	> 1000 nM	2010 nM	388 nM	> 1 nM	> 1000 nM	7.48 nM	> 10 µM	> 1000 nM	> 1000 nM	> 3000 nM	> 3 µM	> 10 µM	> 10 µM	0.435 µM	248 nM	16.4 nM	> 3 µM	249 nM	> 1000 nM	–	–	–	–	–	–	–	–	–	–	–	–	–
CAL-51 (Breast Carcinoma)	> 1000 nM	1510 nM	–	> 1 nM	–	53 nM	> 10 µM	> 1000 nM	> 1000 nM	> 3000 nM	–	> 10 µM	1.3 µM	6.96 µM	415 nM	25.3 nM	–	> 1000 nM	> 1000 nM	583 nM	> 10 µM	> 3000 nM	> 10 µM	469 nM	> 10 µM	> 1000 nM	> 300 nM	4.41 µM	> 2000 nM	> 10 µM	> 10 µM	–
LB771-HNC (Head and Neck Carcinoma)	> 1000 nM	> 10000 nM	–	> 1 nM	–	> 300 nM	> 10 µM	> 1000 nM	> 1000 nM	> 3000 nM	–	> 10 µM	2.67 µM	6.25 µM	> 1000 nM	367 nM	–	> 1000 nM	> 1000 nM	742 nM	> 10 µM	> 3000 nM	> 10 µM	> 1000 nM	> 10 µM	> 1000 nM	> 300 nM	> 10 µM	> 2000 nM	> 10 µM	> 10 µM	–
SW626 (Colorectal Carcinoma)	> 1000 nM	> 10000 nM	–	> 1 nM	–	> 300 nM	> 10 µM	111 nM	> 1000 nM	> 3000 nM	–	> 10 µM	> 10 µM	> 10 µM	> 1000 nM	127 nM	–	> 1000 nM	> 1000 nM	1490 nM	> 10 µM	> 3000 nM	> 10 µM	150 nM	> 10 µM	> 1000 nM	> 300 nM	> 10 µM	> 2000 nM	2.81 µM	> 10 µM	–
MHH-PREB-1 (B-Cell Non-Hodgkin's Lymphoma)	> 1000 nM	2080 nM	–	> 1 nM	–	58.4 nM	> 10 µM	> 1000 nM	> 1000 nM	> 3000 nM	–	> 10 µM	> 10 µM	> 10 µM	317 nM	8.91 nM	–	> 1000 nM	> 1000 nM	935 nM	> 10 µM	> 3000 nM	8.08 µM	756 nM	> 10 µM	> 1000 nM	> 300 nM	> 10 µM	> 2000 nM	> 10 µM	> 10 µM	–
COLO-829 (Melanoma)	> 1000 nM	> 10000 nM	–	> 1 nM	–	> 300 nM	> 10 µM	279 nM	> 1000 nM	> 3000 nM	–	> 10 µM	> 10 µM	> 10 µM	> 1000 nM	> 1000 nM	–	> 1000 nM	> 1000 nM	> 3000 nM	> 10 µM	> 3000 nM	> 10 µM	> 1000 nM	> 10 µM	> 1000 nM	> 300 nM	> 10 µM	598 nM	8.42 µM	> 10 µM	> 10 µM
UMC-11 (Other Solid Carcinomas)	> 1000 nM	> 10000 nM	–	> 1 nM	–	> 300 nM	> 10 µM	> 1000 nM	> 1000 nM	> 3000 nM	–	> 10 µM	> 10 µM	1.21 µM	> 1000 nM	57.5 nM	–	103 nM	> 1000 nM	> 3000 nM	> 10 µM	> 3000 nM	5.91 µM	289 nM	> 10 µM	> 1000 nM	> 300 nM	> 10 µM	> 2000 nM	> 10 µM	> 10 µM	–
